The values below are quoted from earlier work in patent publication US20160271257A1, “Low Molecular Weight Immune-Modulators As Adjuvants for Specific Immunotherapy” (PLS-DESIGN GMBH, priority 2013, published 2016).

A word on the IC50: it is the concentration that inhibits the measured activity by half.

Assay in data set [1]: not given
This is another data set of the same source.

Data set [2] addresses T1, C3aR (Homo sapiens, UniProt Q16581).
T1 sequence (Q16581 1-482): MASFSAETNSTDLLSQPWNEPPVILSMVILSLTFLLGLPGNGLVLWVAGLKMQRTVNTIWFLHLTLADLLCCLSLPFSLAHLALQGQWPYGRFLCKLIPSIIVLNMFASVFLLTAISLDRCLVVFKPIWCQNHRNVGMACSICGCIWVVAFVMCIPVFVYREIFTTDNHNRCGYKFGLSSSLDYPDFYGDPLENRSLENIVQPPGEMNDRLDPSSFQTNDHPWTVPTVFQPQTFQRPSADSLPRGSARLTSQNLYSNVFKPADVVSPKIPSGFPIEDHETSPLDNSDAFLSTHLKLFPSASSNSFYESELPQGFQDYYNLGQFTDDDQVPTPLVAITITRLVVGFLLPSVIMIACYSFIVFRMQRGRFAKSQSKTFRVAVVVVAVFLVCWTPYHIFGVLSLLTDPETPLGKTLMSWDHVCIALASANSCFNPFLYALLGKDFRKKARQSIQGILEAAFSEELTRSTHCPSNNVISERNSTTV
The following applies: human neutrophils; read-out: IC50 of inhibition of C3a-induced calcium mobilization. (Calcium flux is commonly read through the fluorescence of an indicator in the cells.)

Values after ≈ are worked out from the molar mass of the structure shown.

For the compound `N=C(N)NCCCC(NC(=O)COCC(c1ccccc1)c1ccccc1)C(=O)O` [SB290157, N^2-[(2,2-dipheneylethoxy)acetyl]-L-arginine], the in vivo half-life result is recorded as “short”. Further, in data set [1], the “solubility in DMSO” value was 5000 µg/mL (≈ 12.1 mM); the “solubility in saline solution containing 5% ethanol and 10% Cremaphor-EL” value is on record as “at least 10 mg/ml”. In addition, the IC50 in data set [2] is 28 nM.
